Data as given in PMC12052742, “Engineering a newly identified alcohol dehydrogenase from Sphingobium Sp. for efficient utilization of nicotinamide cofactors biomimetics” (Bioresources and Bioprocessing, 2025).

Key:
Type in all cases: biochemical, Sphingobium sp. SYK-6
SpADH2 [1] = assay: Cofactor spectrum of syringyl alcohol oxidation (HPLC specific activity), WT; conditions: 1a 5 mM, cofactor 7.5 mM, pH 7.5, 30℃, 5 µg SpADH2, 1 h
Protocol: Fig. 2 Cofactor spectrum of syringyl alcohol oxidation catalyzed by SpADH2. The darkness of the background color for each cofactor stands for the activity of SpADH2 utilizing various cofactors. (a) NAD(P) ^+ and NMN^+ are shown in purple background. (b) tsNCBs are shown in cyan background. The evaluation of cofactor spectrum of SpADH2 was carried out under following conditions: 50 mM PBS buffer (pH 7.5) and 30℃, with 1a (5 mM) as substrate and different cofactors (7.5 mM) as cofactor. For NAD(P)^+ and NMN^+, 0.05 µg SpADH2 was added, and for tsNCBs, 5 µg SpADH2 was added. The results were analyzed by HPLC after 1 h reaction
(§1) Specific activity of SpADH2 in cofactor spectrum study was determined by HPLC analysis. PBS (pH 7.5) buffer was pre-heated at 30°C for 15 min. For NAD(P)^+ and NMN^+, 0.05 µg SpADH2 was added to PBS buffer (100 µL). For tsNCBs, 5 µg SpADH2 was added. A final concentration of 7.5 mM cofactor was added to the reaction mixture. Finally, a final concentration of 5 mM substrate was added to start the reaction. The reactions were conducted at 30°C.
(§2) One unit of enzyme activity is defined as the amount of enzyme required to form 1 µmol 1b per minute at pH 7.5 and 30°C. Same reaction without cofactor was used as a blank control.

SpADH2 [2] = assay: Preliminary evaluation of NCB usage in oxidation of syringyl alcohol (HPLC); conditions: preliminary assay: 1a 1 mM, NCB 10 mM, pH 7.0, 30℃, 1 h
Protocol: Sphingobium sp. SYK-6 belongs to genus Sphingomonas, and a search in UniProtKB identified 19 ADHs from this strain, including 5 PQQ-dependent and the remaining NAD^+/NADP^+-dependent enzymes. Two sequences annotated as aryl-alcohol dehydrogenases (SLG_34580 and SLG_24930) (Table. S1) were selected for heterologous expression (Fig. S1) and named SpADH1 and SpADH2, respectively. Their ability to utilize NCBs was assessed by oxidation of syringyl alcohol (1a) to produce syringaldehyde (1b) (Fig. 1a).
Fig. 1 (a) Reaction scheme of SpADH2-catalyzed oxidation of syringyl alcohol. (b) Specific activity of SpADH2 toward four NCBs. The evaluation of NCBs usage by SpADH2 was carried out under following conditions: 50 mM PBS buffer (pH 7.0) and 30℃, with 1a (1 mM) as substrate and 4 typical NCBs (10 mM) as cofactor. A total of 0.1 mg/mL enzyme was added to a 200 µL reaction mixture, and was analyzed by HPLC after 1 h reaction
Reaction samples were analyzed using Agilent 1260 Infinity II LC system under reversed phase condition. Column: Agilent C18 column. Analytical conditions for 1a and 1b: mobile phase: 50% water: 50% acetonitrile. The retention time for standard product 1b was 3.27 min, under flow rate of 1 mL·min^− 1and temperature of 30°C (Fig. S4).

[3] = system: SpADH2 variant H43L/A290I; assay: Cofactor spectrum (HPLC specific activity), variant H43L/A290I; conditions: 1a 5 mM, cofactor 7.5 mM, pH 7.5, 30℃, 5 µg enzyme
Protocol: (§3) Fig. 8 Cofactor spectrums of SpADH2 and its variants. The darkness of color for each cofactor stands for the activity. For each cofactor cube, top left: WT, top right: H43L, bottom left: A290I, bottom right: H43L/A290I. (a) Natural cofactors and NMN^+ are shown in purple. (b) tsNCBs are shown in cyan. The evaluation of cofactor spectrum was carried out under following conditions: 50 mM PBS buffer (pH 7.5) and 30℃, with 1a (5 mM) as substrate and different cofactors (7.5 mM) as cofactor. For NAD(P)^+ and NMN^+, 0.05 µg enzyme was added, and for tsNCBs, 5 µg enzyme was added. The results were analyzed by HPLC after 1 h reaction
as §1, §2

SpADH2 variant H43L = assay: Cofactor spectrum (HPLC specific activity), variant H43L; conditions: 1a 5 mM, cofactor 7.5 mM, pH 7.5, 30℃, 5 µg enzyme
Protocol: as §3, §1, §2

| SMILES | utilization of the tsNCB by SpADH2 (in words) (SpADH2 [1]) | utilization of the NCB by SpADH2 (in words) (SpADH2 [2]) | utilization of the tsNCB (in words) [3] | utilization of the tsNCB (in words) (SpADH2 variant H43L) |
| --- | --- | --- | --- | --- |
| NC(=O)c1ccc[n+](CCCc2ccccc2)c1 [P3NA^+, 3-carbamoyl-1-(3-phenylpropyl)pyridin-1-ium] | No detectable activity | could not be utilized | acquired capability of utilizing | – |
| NC(=O)c1ccc[n+](CCc2ccccc2)c1 [P2NA^+, 3-carbamoyl-1-phenethylpyridin-1-ium] | No detectable activity | could not be utilized | – | exhibited activity |
